Laboratory results from patent EP4596537A1, “NOVEL FLUORENE DERIVATIVE COMPOUND AND USE THEREOF” (JD Bioscience Inc., priority 2022, dated 2024).

Tested on: PDHE1α S293
Experiment: In vitro PDH S293 phosphorylation inhibition (Western blot) in HEK293 cells
Format: cell-based, human
Conditions: Homo sapiens, 5 hours
Procedure: HEK293 cells, which are human embryonic kidney cells, were seeded at a density of 2 × 10^6 in a 60 mm dish, and cultured for 24 hours. After replacing the medium with a medium comprising 0.5% FBS, the compounds prepared according to Examples 1 to 54 were treated at various concentrations. 5 hours later, the cells were scraped off and collected into a 15 mL conical tube and centrifuged at 1500 rpm for 10 minutes. The supernatant was discarded, the resultant was washed with 1× PBS, and transferred to a 1.5 mL e-tube, followed by centrifugation at 10,000 rpm for 5 minutes. The supernatant was discarded again, a lysis buffer was added, and the cells were lysed on ice for 30 minutes. The cells were vortexed every 10 minutes to completely lyse, and centrifuged again at 10,000 rpm for 15 minutes at 4°C, and the supernatant was collected. The protein in the supernatant was quantified using BCA technique, and the sample buffer was added to 20 µg of protein and allowed to react at 70°C for 5 minutes. The expression of PDHE1α S232, S293, S300, and total PDHE1α proteins was detected by Western blot, and the resulting PDH S293 phosphorylation inhibition is shown in Table 6. […]

`CCC(C(=O)NNc1ccc(F)cc1)n1cc(-c2cc(F)cc3c2-c2ccccc2C3(O)C(F)(F)F)cn1` (stereo not shown) [Example 43, 2-(4-(2-fluoro-9-hydroxy-9-(trifluoromethyl)-9H-fluoren-4-yl)-1H-pyrazol-1-yl)-N'-(4-fluorophenyl)butanehydrazide] and `CC(C)CC(C(=O)NNc1ccc(F)cc1)n1cc(-c2cc(F)cc3c2-c2ccccc2C3(O)C(F)(F)F)cn1` (stereo not shown) [Example 45, 2-(4-(2-fluoro-9-hydroxy-9-(trifluoromethyl)-9H-fluoren-4-yl)-1H-pyrazol-1-yl)-N'-(4-fluorophenyl)-4-methylpentanehydrazide] cannot be ordered by inhibition at 1 µM: at least 50% for the first, at least 50% for the second.

`CC(C(=O)NNc1ccncc1)n1cc(-c2cc(F)cc3c2-c2ccccc2C3(O)C(F)(F)F)cn1` (stereo not shown) [Example 34, 2-(4-(2-fluoro-9-hydroxy-9-(trifluoromethyl)-9H-fluoren-4-yl)-1H-pyrazol-1-yl)-N'-(pyridin-4-yl)propanehydrazide] and `CC(C(=O)NNc1ccccc1)n1cc(-c2cc(F)cc3c2-c2ccccc2C3(O)C(F)(F)F)cn1` (stereo not shown) [Example 4, 2-(4-(2-fluoro-9-hydroxy-9-(trifluoromethyl)-9H-fluoren-4-yl)-1H-pyrazol-1-yl)-N'-phenylpropanehydrazide] cannot be ordered by inhibition at 1 µM: at least 50% for the first, at least 80% for the second.

`O=C(Cn1cc(-c2cc(F)cc3c2-c2ccccc2C3(O)C(F)(F)F)cn1)NNc1ccc(F)cc1` (stereo not shown) [Example 21, 2-(4-(2-fluoro-9-hydroxy-9-(trifluoromethyl)-9H-fluoren-4-yl)-1H-pyrazol-1-yl)-N'-(4-fluorophenyl)acetohydrazide] and `C[C@H](C(=O)NNc1ccc(F)cc1)n1cc(-c2cc(F)cc3c2-c2ccccc2[C@]3(O)C(F)(F)F)cn1` [Example 49, (R)-2-(4-((R)-2-fluoro-9-hydroxy-9-(trifluoromethyl)-9H-fluoren-4-yl)-1H-pyrazol-1-yl)-N'-(4-fluorophenyl)propanehydrazide] cannot be ordered by inhibition at 1 µM: at least 50% for the first, at least 50% for the second.

`CC(C(=O)NNc1cc2ccccc2[nH]c1=O)n1cc(-c2cc(F)cc3c2-c2ccccc2C3(O)C(F)(F)F)cn1` (stereo not shown) [Example 38, 2-(4-(2-fluoro-9-hydroxy-9-(trifluoromethyl)-9H-fluoren-4-yl)-1H-pyrazol-1-yl)-N'-(2-oxo-1,2-dihydroquinolin-3-yl)propanehydrazide] and `CC(C(=O)NNc1ccccc1F)n1cc(-c2cc(F)cc3c2-c2ccccc2C3(O)C(F)(F)F)cn1` (stereo not shown) [Example 13, 2-(4-(2-fluoro-9-hydroxy-9-(trifluoromethyl)-9H-fluoren-4-yl)-1H-pyrazol-1-yl)-N'-(2-fluorophenyl)propanehydrazide] cannot be ordered by inhibition at 1 µM: at least 50% for the first, at least 50% for the second.

`COc1cc(-c2cnn(C(C)C(=O)NN3CCCCC3)c2)c2c(c1)C(O)(C(F)(F)F)c1ccccc1-2` (stereo not shown) [Example 52, 2-(4-(9-hydroxy-2-methoxy-9-(trifluoromethyl)-9H-fluoren-4-yl)-1H-pyrazol-1-yl)-N-(piperidin-1-yl)propanamide] and `COc1cc(-c2cnn(C(C)C(=O)NNc3ncccn3)c2)c2c(c1)C(O)(C(F)(F)F)c1ccccc1-2` (stereo not shown) [Example 29, 2-(4-(9-hydroxy-2-methoxy-9-(trifluoromethyl)-9H-fluoren-4-yl)-1H-pyrazol-1-yl)-N'-(pyrimidin-2-yl)propanehydrazide] cannot be ordered by inhibition at 1 µM: at least 50% for the first, at least 50% for the second.

`COc1cc(-c2cnn(C(C)C(=O)NNc3ccc(Cl)cc3)c2)c2c(c1)C(O)(C(F)(F)F)c1ccccc1-2` (stereo not shown) [Example 10, N'-(4-chlorophenyl)-2-(4-(9-hydroxy-2-methoxy-9-(trifluoromethyl)-9H-fluoren-4-yl)-1H-pyrazol-1-yl)propanehydrazide] and `C[C@H](C(=O)NNc1ccc(F)cc1)n1cc(-c2cc(F)cc3c2-c2ccccc2[C@@]3(O)C(F)(F)F)cn1` [Example 51, (R)-2-(4-((S)-2-fluoro-9-hydroxy-9-(trifluoromethyl)-9H-fluoren-4-yl)-1H-pyrazol-1-yl)-N'-(4-fluorophenyl)propanehydrazide] cannot be ordered by inhibition at 1 µM: at least 50% for the first, at least 50% for the second.

`COc1cc(-c2cnn(C(C)C(=O)NNc3ccc(C(=O)OC(C)(C)C)cn3)c2)c2c(c1)C(O)(C(F)(F)F)c1ccccc1-2` (stereo not shown) [Example 15, tert-butyl 6-(2-(2-(4-(9-hydroxy-2-methoxy-9-(trifluoromethyl)-9H-fluoren-4-yl)-1H-pyrazol-1-yl)propanoyl)hydrazinyl)nicotinate] and `COc1cc(-c2cnn(C(C)C(=O)NNc3ccc(C(F)(F)F)cn3)c2)c2c(c1)C(O)(C(F)(F)F)c1ccccc1-2` (stereo not shown) [Example 27, 2-(4-(9-hydroxy-2-methoxy-9-(trifluoromethyl)-9H-fluoren-4-yl)-1H-pyrazol-1-yl)-N'-(5-(trifluoromethyl)pyridin-2-yl)propanehydrazide] cannot be ordered by inhibition at 1 µM: at least 50% for the first, at least 50% for the second.

`CC(C(=O)NNc1ccc(S(C)(=O)=O)cc1)n1cc(-c2cc(F)cc3c2-c2ccccc2C3(O)C(F)(F)F)cn1` (stereo not shown) [Example 22, 2-(4-(2-fluoro-9-hydroxy-9-(trifluoromethyl)-9H-fluoren-4-yl)-1H-pyrazol-1-yl)-N'-(4-(methylsulfonyl)phenyl)propanehydrazide] and `CC(C(=O)NNc1ccccn1)n1cc(-c2cc(F)cc3c2-c2ccccc2C3(O)C(F)(F)F)cn1` (stereo not shown) [Example 8, 2-(4-(2-fluoro-9-hydroxy-9-(trifluoromethyl)-9H-fluoren-4-yl)-1H-pyrazol-1-yl)-N'-(pyridin-2-yl)propanehydrazide] cannot be ordered by inhibition at 1 µM: at least 50% for the first, at least 80% for the second.

`CC(C(=O)NNc1ccc2ccccc2n1)n1cc(-c2cc(F)cc3c2-c2ccccc2C3(O)C(F)(F)F)cn1` (stereo not shown) [Example 39, 2-(4-(2-fluoro-9-hydroxy-9-(trifluoromethyl)-9H-fluoren-4-yl)-1H-pyrazol-1-yl)-N'-(quinolin-2-yl)propanehydrazide] and `CC(C(=O)NNc1cnc2ccccc2n1)n1cc(-c2cc(F)cc3c2-c2ccccc2C3(O)C(F)(F)F)cn1` (stereo not shown) [Example 37, 2-(4-(2-fluoro-9-hydroxy-9-(trifluoromethyl)-9H-fluoren-4-yl)-1H-pyrazol-1-yl)-N'-(quinoxalin-2-yl)propanehydrazide] cannot be ordered by inhibition at 1 µM: at least 50% for the first, at least 50% for the second.

`CC(C(=O)NNc1nc2ccccc2s1)n1cc(-c2cc(F)cc3c2-c2ccccc2C3(O)C(F)(F)F)cn1` (stereo not shown) [Example 42, N'-(benzo[d]thiazol-2-yl)-2-(4-(2-fluoro-9-hydroxy-9-(trifluoromethyl)-9H-fluoren-4-yl)-1H-pyrazol-1-yl)propanehydrazide] and `CC(C(=O)NNc1ccnc2ccccc12)n1cc(-c2cc(F)cc3c2-c2ccccc2C3(O)C(F)(F)F)cn1` (stereo not shown) [Example 36, 2-(4-(2-fluoro-9-hydroxy-9-(trifluoromethyl)-9H-fluoren-4-yl)-1H-pyrazol-1-yl)-N'-(quinolin-4-yl)propanehydrazide] cannot be ordered by inhibition at 1 µM: at least 50% for the first, at least 50% for the second.

`COc1cc(-c2cnn(C(C)C(=O)NNc3cccc4ccccc34)c2)c2c(c1)C(O)(C(F)(F)F)c1ccccc1-2` (stereo not shown) [Example 11, 2-(4-(9-hydroxy-2-methoxy-9-(trifluoromethyl)-9H-fluoren-4-yl)-1H-pyrazol-1-yl)-N'-(naphthalen-1-yl)propanehydrazide] and `CC(C(=O)NNc1cccc2ccccc12)n1cc(-c2cc(F)cc3c2-c2ccccc2C3(O)C(F)(F)F)cn1` (stereo not shown) [Example 5, 2-(4-(2-fluoro-9-hydroxy-9-(trifluoromethyl)-9H-fluoren-4-yl)-1H-pyrazol-1-yl)-N'-(naphthalen-1-yl)propanehydrazide] cannot be ordered by inhibition at 1 µM: at least 50% for the first, at least 50% for the second.

`O=C(NNc1ccc(F)cc1)C(CC1CCCCC1)n1cc(-c2cc(F)cc3c2-c2ccccc2C3(O)C(F)(F)F)cn1` (stereo not shown) [Example 46, 3-cyclohexyl-2-(4-(2-fluoro-9-hydroxy-9-(trifluoromethyl)-9H-fluoren-4-yl)-1H-pyrazol-1-yl)-N'-(4-fluorophenyl)propanehydrazide] and `CC(C(=O)NNc1cnccn1)n1cc(-c2cc(F)cc3c2-c2ccccc2C3(O)C(F)(F)F)cn1` (stereo not shown) [Example 24, 2-(4-(2-fluoro-9-hydroxy-9-(trifluoromethyl)-9H-fluoren-4-yl)-1H-pyrazol-1-yl)-N'-(pyrazin-2-yl)propanehydrazide] cannot be ordered by inhibition at 1 µM: at least 50% for the first, at least 50% for the second.

`CC(C)(C)OC(=O)c1ccc(NNC(=O)Cn2cc(-c3cc(F)cc4c3-c3ccccc3C4(O)C(F)(F)F)cn2)nc1` (stereo not shown) [Example 19, tert-butyl 6-(2-(2-(4-(2-fluoro-9-hydroxy-9-(trifluoromethyl)-9H-fluoren-4-yl)-1H-pyrazol-1-yl)acetyl)hydrazinyl)nicotinate] gave an inhibition at 1 µM of at least 50%.
